Numbered stars: 1 amine (or outer) side, 2 acyl side, 3 side chain; on linkers, the order of the positions; unused ones are H or OH. Square brackets hold non-standard residues; d marks the D form. Peptide text beside a SMILES is read from it. * marks the point of attachment. Trp(βS-Me,7-OMe) = COc1cccc2c([C@H](C)[C@H](N)C(=O)O)c[nH]c12; Phe(4-SO2NH2) = N[C@@H](Cc1ccc(S(N)(=O)=O)cc1)C(=O)O; Phe(2-F,4-COOH) = N[C@@H](Cc1ccc(C(=O)O)cc1F)C(=O)O; Trp(7-CN) = N#Cc1cccc2c(C[C@H](N)C(=O)O)c[nH]c12; Trp(7-Cl) = N[C@@H](Cc1c[nH]c2c(Cl)cccc12)C(=O)O; Phe(4-CONH2) = NC(=O)c1ccc(C[C@H](N)C(=O)O)cc1; Phe(4-COOH) = N[C@@H](Cc1ccc(C(=O)O)cc1)C(=O)O; Trp(7-aza) = N[C@@H](Cc1c[nH]c2ncccc12)C(=O)O; Pip(5R-OH) = O=C(O)[C@@H]1CC[C@@H](O)CN1; X1 = O=C([C@@H]1CC[C@H](N[*:1])C1)[*:2]; dPro(4,4-F2) = O=C(O)[C@H]1CC(F)(F)CN1; Pip(4-aza) = O=C(O)[C@@H]1CNCCN1; 4Pal = N[C@@H](Cc1ccncc1)C(=O)O; NMeE = CN[C@@H](CCC(=O)O)C(=O)O; dHyp = O=C(O)[C@H]1C[C@H](O)CN1; aThr = C[C@H](O)[C@H](N)C(=O)O; αMeS = C[C@](N)(CO)C(=O)O; Carboxymethyl = O=C(O)C*; Nle = CCCC[C@H](N)C(=O)O; Ethyl(2-NH2) = NCC*; Sar = CNCC(=O)O
Molecular target: T1, TNFα-induced NF-κB signal transduction pathway (TNFR1 signaling) in THP-1 cells (Homo sapiens, UniProt P19438)
T1 sequence (P19438 30-455): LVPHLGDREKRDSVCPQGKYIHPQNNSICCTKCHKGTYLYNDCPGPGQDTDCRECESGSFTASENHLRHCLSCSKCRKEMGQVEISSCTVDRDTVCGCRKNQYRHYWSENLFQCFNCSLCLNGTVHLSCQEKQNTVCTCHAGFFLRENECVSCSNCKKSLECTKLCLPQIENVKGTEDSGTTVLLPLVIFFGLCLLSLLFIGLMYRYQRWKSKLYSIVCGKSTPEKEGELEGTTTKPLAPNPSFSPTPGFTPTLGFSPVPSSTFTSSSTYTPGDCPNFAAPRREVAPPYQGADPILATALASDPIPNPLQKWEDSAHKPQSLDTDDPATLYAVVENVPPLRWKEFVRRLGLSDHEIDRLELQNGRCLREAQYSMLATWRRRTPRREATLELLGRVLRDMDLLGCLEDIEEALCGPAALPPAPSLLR
Assay: THP-1 Lucia NF-κB reporter cell assay, inhibition of TNFα-induced NF-κB signaling
Format: cell-based
Conditions: THP-1 NF-κB Lucia reporter cells, 10 ng/mL TNFα, 16-18 h, secreted luciferase; read-out: THP-1 IC50
Summary of the method: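 THP-1 Lucia NF-κB cells, 20k/well, no selection antibiotics; peptide pre-inc 1 h 37 °C; + recombinant human TNFα 10 ng/mL final; o.n.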

| Compound | IC50 [pM] |
| --- | --- |
| CCCC[C@@H]1NC(=O)[C@@H]2CC[C@@H](C2)NC(=O)[C@H]([C@@H](C)c2c[nH]c3c(OC)cccc23)NC(=O)CN(C)C(=O)[C@H](Cc2ccc(C(=O)O)cc2)NC(=O)[C@H](Cc2ccc(S(N)(=O)=O)cc2)NC(=O)[C@](C)(CO)NC(=O)[C@H](Cc2c[nH]c3c(C#N)cccc23)NC(=O)[C@H](Cc2ccc(C(=O)O)cc2)NC(=O)[C@H](CC(N)=O)NC(=O)[C@H]2C[C@H](OCC(=O)O)CN2C(=O)[C@H](Cc2c[nH]c3ncccc23)NC(=O)[C@@H]2CC[C@@H](O)CN2C(=O)[C@H](Cc2ccncc2)NC1=O [SEQ ID NO. 4] (cyclo([4Pal][Pip(5R-OH)][Trp(7-aza)][dHyp](Carboxymethyl)N[Phe(4-COOH)][Trp(7-CN)][αMeS][Phe(4-SO2NH2)][Phe(4-COOH)][Sar][Trp(βS-Me,7-OMe)][X1][Nle])) | 500 |
| CCCC[C@@H]1NC(=O)[C@@H]2CC[C@@H](C2)NC(=O)[C@H]([C@@H](C)c2c[nH]c3c(OC)cccc23)NC(=O)CN(C)C(=O)[C@H](Cc2ccc(C(N)=O)cc2)NC(=O)[C@H](Cc2ccc(C(N)=O)cc2)NC(=O)[C@](C)(CO)NC(=O)[C@H](Cc2c[nH]c3c(Cl)cccc23)NC(=O)[C@H](Cc2ccncc2)NC(=O)[C@H](CC(N)=O)NC(=O)[C@H](CCC(=O)O)N(C)C(=O)[C@H](Cc2c[nH]c3ncccc23)NC(=O)[C@@H]2CC[C@@H](O)CN2C(=O)[C@H](Cc2ccncc2)NC1=O [SEQ ID NO. 189] (cyclo([4Pal][Trp(7-Cl)][αMeS][Phe(4-CONH2)][Phe(4-CONH2)][Sar][Trp(βS-Me,7-OMe)][X1][Nle][4Pal][Pip(5R-OH)][Trp(7-aza)][NMeE]N)) | 600 |
| CCCC[C@@H]1NC(=O)[C@@H]2CC[C@@H](C2)NC(=O)[C@H]([C@@H](C)c2c[nH]c3c(OC)cccc23)NC(=O)CN(C)C(=O)[C@H](Cc2ccc(C(=O)O)cc2)NC(=O)[C@H](Cc2ccc(C(N)=O)cc2)NC(=O)[C@](C)(CO)NC(=O)[C@H](Cc2c[nH]c3c(Cl)cccc23)NC(=O)[C@H](Cc2ccncc2)NC(=O)[C@H]([C@H](C)O)NC(=O)[C@H]2C[C@H](O)CN2C(=O)[C@H](Cc2c[nH]c3ccccc23)NC(=O)[C@@H]2CC[C@@H](O)CN2C(=O)[C@H](Cc2ccncc2)NC1=O [SEQ ID NO. 187] (cyclo([4Pal][Trp(7-Cl)][αMeS][Phe(4-CONH2)][Phe(4-COOH)][Sar][Trp(βS-Me,7-OMe)][X1][Nle][4Pal][Pip(5R-OH)]W[dHyp][aThr])) | 500 |
| CCCC[C@@H]1NC(=O)[C@@H]2CC[C@@H](C2)NC(=O)[C@H]([C@@H](C)c2c[nH]c3c(OC)cccc23)NC(=O)CN(C)C(=O)[C@H](Cc2ccc(C(=O)O)cc2F)NC(=O)[C@H](Cc2ccc(S(N)(=O)=O)cc2)NC(=O)[C@](C)(CO)NC(=O)[C@H](Cc2c[nH]c3c(C#N)cccc23)NC(=O)[C@H](Cc2ccc(C(=O)O)cc2F)NC(=O)[C@H](CC(N)=O)NC(=O)[C@H]2C[C@H](OCC(=O)O)CN2C(=O)[C@H](Cc2c[nH]c3ncccc23)NC(=O)[C@@H]2CC[C@@H](O)CN2C(=O)[C@H](Cc2ccncc2)NC1=O [SEQ ID NO. 134] (cyclo([4Pal][Pip(5R-OH)][Trp(7-aza)][dHyp](Carboxymethyl)N[Phe(2-F,4-COOH)][Trp(7-CN)][αMeS][Phe(4-SO2NH2)][Phe(2-F,4-COOH)][Sar][Trp(βS-Me,7-OMe)][X1][Nle])) | 400 |
| CCCC[C@@H]1NC(=O)[C@@H]2CC[C@@H](C2)NC(=O)[C@H]([C@@H](C)c2c[nH]c3c(OC)cccc23)NC(=O)CN(C)C(=O)[C@H](Cc2ccc(O)cc2)NC(=O)[C@H](Cc2ccc(C(=O)O)cc2)NC(=O)[C@](C)(CO)NC(=O)[C@H](Cc2c[nH]c3c(Cl)cccc23)NC(=O)[C@H](Cc2ccncc2)NC(=O)[C@H](CC(N)=O)NC(=O)[C@H]2CC(F)(F)CN2C(=O)[C@H](Cc2c[nH]c3ccccc23)NC(=O)[C@@H]2CNCCN2C(=O)[C@H](Cc2ccncc2)NC1=O [SEQ ID NO. 266] (cyclo([4Pal][Trp(7-Cl)][αMeS][Phe(4-COOH)]Y[Sar][Trp(βS-Me,7-OMe)][X1][Nle][4Pal][Pip(4-aza)]W[dPro(4,4-F2)]N)) | 900 |
| COc1cccc2c([C@H](C)[C@@H]3NC(=O)CN(C)C(=O)[C@H](Cc4ccc(C(=O)O)cc4)NC(=O)[C@H](Cc4ccc(C(N)=O)cc4)NC(=O)[C@](C)(CO)NC(=O)[C@H](Cc4c[nH]c5c(Cl)cccc45)NC(=O)[C@H](Cc4ccc(C(=O)O)cc4)NC(=O)[C@H](CC(N)=O)NC(=O)[C@H]4C[C@H](O)CN4C(=O)[C@H](Cc4c[nH]c5ncccc45)NC(=O)[C@@H]4CC[C@@H](O)CN4C(=O)[C@H](Cc4ccncc4)NC(=O)[C@H](COCCN)NC(=O)[C@@H]4CC[C@@H](C4)NC3=O)c[nH]c12 [SEQ ID NO. 148] (cyclo([4Pal][Pip(5R-OH)][Trp(7-aza)][dHyp]N[Phe(4-COOH)][Trp(7-Cl)][αMeS][Phe(4-CONH2)][Phe(4-COOH)][Sar][Trp(βS-Me,7-OMe)][X1]S(Ethyl(2-NH2)))) | 2800 |

— US20240287138A1, “CYCLIC PEPTIDES FOR INHIBITING TNF RECEPTOR 1 ACTIVITY” (Merck Sharp & Dohme LLC, priority 2023, published 2024)
